Results taken from patent US10442778B2, “N1-phenylpropane-1,2-diamine compounds with selective activity in voltage-gated sodium channels” (Merck Sharp & Dohme Corp., priority 2016, dated 2019).
pIC50: −log10 of the molar value.

Assays:
[1] = target: T1, human Nav1.7 channels stably expressed in HEK 293 cells (Homo sapiens, UniProt Q15858); assay: IonWorks Quattro automated patch-clamp, inactivated state block of Nav1.7; assay type: cell-based; conditions: double-pulse protocol, read-out: potency for the Nav 1.7 sodium ion channel (as measured by IonWorks)
T1 construct: expressed in transfected cells; host or cells: HEK 293
Experimental: (§1) Compounds were tested on human Nav1.7 and Nav1.5 channels stably expressed in HEK 293 cells. […] Cells were sealed on a planar substrate using the Population Patch Plate (PPC) technology. Electrical access was obtained using both nystatin and amphotericin. A double-pulse protocol was used for the determination of IC50 values for inactivated state block. Nav1.7 and Nav1.5 expressing cells were voltage clamped at −100 mV and −110 mV, respectively. A depolarizing prepulse to −10 mV (Nav1.7) or −30 mV (Nav1.5) for 1000 ms followed by a 10 ms repolarization to −100 mV (Nav1.7) or −110 mV (Nav1.5) was given to generate fractional channel inactivation of ˜50%, followed by a 10 ms test pulse to −10 mV (Nav1.7) or −30 mV (Nav1.5) to measure peak current in control conditions and after compound addition. The following recording solutions were used (mM). External: 150 NaCl, 2 CaCl2, 5 KCl, 1 Mg Cl2, 10 HEPES, 12 Dextrose; internal: 120 CsF, 30 CsCl, 10 EGTA, 5 HEPES, 5 NaF, 2 MgCl2.
(§2) For all electrophysiology experiments, offline analysis was used to determine percent inhibition as a function of drug concentration. IC50 values were determined by fitting to the Hill equation.

[2] = target: T2, human Nav1.5 channels stably expressed in HEK 293 cells (Homo sapiens, UniProt Q14524); assay: IonWorks Quattro automated patch-clamp, inactivated state block of Nav1.5 (selectivity); assay type: cell-based; conditions: IonWorks measurement, both channels in HEK 293 cells
T2 construct: expressed in transfected cells; host or cells: HEK 293
Experimental: as §1, §2

T1 sequence (Q15858 whole entry): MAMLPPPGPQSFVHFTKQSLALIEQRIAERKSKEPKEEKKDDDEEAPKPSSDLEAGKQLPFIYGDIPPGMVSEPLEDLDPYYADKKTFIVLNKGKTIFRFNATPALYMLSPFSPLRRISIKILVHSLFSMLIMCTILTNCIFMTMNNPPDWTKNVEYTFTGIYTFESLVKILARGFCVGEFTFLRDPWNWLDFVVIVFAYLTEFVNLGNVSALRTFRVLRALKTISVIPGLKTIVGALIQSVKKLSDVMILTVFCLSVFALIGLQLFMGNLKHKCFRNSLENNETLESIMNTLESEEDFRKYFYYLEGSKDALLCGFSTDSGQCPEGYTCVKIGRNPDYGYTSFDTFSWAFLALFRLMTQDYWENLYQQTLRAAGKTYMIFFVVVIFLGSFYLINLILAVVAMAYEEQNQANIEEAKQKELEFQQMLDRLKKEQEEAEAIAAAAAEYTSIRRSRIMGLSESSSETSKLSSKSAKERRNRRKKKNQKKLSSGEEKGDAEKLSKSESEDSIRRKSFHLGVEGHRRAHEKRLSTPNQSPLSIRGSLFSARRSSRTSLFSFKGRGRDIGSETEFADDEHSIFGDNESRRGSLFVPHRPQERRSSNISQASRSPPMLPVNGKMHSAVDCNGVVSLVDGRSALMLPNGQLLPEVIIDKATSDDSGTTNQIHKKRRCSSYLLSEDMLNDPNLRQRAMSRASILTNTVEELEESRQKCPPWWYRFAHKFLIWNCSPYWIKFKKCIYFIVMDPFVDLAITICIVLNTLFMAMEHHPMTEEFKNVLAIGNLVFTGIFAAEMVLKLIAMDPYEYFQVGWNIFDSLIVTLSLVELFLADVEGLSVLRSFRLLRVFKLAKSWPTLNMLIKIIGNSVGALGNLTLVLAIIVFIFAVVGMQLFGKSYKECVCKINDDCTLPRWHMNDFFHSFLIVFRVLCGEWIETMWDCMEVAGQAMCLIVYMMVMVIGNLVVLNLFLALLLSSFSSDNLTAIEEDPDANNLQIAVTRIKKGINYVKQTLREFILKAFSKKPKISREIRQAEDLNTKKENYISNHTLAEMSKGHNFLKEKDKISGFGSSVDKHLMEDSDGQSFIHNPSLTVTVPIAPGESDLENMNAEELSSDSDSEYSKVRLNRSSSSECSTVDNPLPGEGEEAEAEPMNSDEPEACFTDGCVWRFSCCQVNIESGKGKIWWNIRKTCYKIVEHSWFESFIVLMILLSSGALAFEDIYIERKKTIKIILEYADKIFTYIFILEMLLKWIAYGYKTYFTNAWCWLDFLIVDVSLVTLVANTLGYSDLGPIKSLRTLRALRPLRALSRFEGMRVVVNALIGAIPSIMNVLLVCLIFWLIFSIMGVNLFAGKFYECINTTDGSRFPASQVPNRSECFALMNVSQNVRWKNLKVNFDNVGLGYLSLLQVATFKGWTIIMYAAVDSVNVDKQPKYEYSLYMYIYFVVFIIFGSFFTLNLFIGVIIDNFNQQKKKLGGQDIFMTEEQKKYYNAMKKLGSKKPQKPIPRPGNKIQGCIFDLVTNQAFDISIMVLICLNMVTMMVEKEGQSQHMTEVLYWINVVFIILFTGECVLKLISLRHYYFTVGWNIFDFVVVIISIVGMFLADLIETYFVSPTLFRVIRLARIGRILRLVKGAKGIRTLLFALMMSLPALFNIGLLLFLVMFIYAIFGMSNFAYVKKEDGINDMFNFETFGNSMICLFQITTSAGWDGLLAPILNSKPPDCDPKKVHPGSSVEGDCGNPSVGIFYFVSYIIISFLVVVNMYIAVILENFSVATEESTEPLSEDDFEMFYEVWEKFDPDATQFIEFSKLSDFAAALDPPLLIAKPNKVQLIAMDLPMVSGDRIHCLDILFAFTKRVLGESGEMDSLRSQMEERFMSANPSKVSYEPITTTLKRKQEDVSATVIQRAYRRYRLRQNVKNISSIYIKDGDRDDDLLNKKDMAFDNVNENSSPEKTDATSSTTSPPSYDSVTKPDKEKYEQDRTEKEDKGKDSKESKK
T2 sequence (Q14524 whole entry): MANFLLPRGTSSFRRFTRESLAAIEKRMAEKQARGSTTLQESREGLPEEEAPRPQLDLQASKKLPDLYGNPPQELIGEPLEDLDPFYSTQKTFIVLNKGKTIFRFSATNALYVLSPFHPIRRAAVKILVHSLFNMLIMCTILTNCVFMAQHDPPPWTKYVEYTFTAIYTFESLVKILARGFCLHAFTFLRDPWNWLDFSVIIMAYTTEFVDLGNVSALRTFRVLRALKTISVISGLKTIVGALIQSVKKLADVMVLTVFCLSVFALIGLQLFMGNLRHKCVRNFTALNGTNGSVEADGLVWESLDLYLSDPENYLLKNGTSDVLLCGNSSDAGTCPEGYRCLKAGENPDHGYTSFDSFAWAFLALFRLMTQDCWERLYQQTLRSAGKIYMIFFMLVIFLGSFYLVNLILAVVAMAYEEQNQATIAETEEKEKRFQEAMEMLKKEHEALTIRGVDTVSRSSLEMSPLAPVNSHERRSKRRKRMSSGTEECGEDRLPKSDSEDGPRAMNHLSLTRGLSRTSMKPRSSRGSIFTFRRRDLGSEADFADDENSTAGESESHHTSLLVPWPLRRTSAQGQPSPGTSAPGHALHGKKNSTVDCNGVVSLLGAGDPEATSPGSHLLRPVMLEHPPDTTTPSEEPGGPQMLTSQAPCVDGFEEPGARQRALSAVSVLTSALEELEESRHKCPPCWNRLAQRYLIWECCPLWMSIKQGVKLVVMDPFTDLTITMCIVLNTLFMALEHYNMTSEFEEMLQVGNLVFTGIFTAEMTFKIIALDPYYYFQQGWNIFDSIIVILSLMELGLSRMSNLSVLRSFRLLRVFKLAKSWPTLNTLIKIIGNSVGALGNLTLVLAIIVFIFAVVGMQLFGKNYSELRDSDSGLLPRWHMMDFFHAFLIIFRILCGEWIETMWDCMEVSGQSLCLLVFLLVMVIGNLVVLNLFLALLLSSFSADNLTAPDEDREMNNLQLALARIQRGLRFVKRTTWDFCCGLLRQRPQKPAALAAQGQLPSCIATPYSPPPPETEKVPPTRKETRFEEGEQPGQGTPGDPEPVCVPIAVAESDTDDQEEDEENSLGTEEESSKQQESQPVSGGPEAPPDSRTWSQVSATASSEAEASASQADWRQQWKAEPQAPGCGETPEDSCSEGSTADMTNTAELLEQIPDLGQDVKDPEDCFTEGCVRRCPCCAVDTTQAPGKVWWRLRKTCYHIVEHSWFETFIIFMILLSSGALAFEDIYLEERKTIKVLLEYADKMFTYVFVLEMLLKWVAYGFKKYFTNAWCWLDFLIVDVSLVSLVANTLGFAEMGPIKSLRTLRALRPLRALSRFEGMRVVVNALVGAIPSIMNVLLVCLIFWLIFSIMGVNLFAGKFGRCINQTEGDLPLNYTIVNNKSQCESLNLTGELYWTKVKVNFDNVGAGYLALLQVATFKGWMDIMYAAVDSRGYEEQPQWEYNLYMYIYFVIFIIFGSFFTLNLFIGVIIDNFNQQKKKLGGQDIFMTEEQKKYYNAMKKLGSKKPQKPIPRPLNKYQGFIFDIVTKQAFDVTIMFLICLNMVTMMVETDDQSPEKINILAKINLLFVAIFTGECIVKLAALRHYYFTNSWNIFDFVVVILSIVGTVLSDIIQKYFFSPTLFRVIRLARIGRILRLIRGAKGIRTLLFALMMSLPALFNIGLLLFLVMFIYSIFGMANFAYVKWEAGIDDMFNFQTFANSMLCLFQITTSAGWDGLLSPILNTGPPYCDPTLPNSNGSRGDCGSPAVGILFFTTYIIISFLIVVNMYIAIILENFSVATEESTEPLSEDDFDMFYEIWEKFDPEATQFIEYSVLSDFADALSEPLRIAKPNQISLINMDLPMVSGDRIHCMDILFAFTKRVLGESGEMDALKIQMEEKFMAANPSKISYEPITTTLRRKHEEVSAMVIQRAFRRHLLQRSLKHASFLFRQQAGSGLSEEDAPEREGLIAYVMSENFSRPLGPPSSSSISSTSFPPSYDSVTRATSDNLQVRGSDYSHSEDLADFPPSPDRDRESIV

| pIC50 [1] | SMILES | ratio of Nav1.7 potency:Nav 1.5 potency [2] |
| --- | --- | --- |
| 6.47 | CN[C@H](CNc1cc(F)c(S(=O)(=O)Nc2ncc(F)s2)cc1Cl)CC1(C)CC1 [Ex6-10, (S)-5-chloro-2-fluoro-N-(5-fluorothiazol-2-yl)-4-((2-(methylamino)-3-(1-methylcyclopropyl)propyl)amino)benzenesulfonamide] | > 68 |
| 6.77 | CN[C@H](CNc1cc(F)c(S(=O)(=O)Nc2ncc(F)s2)cc1Cl)CC1(C(F)(F)F)CC1 [Ex2-14, (S)-5-chloro-2-fluoro-N-(5-fluorothiazol-2-yl)-4-((2-(methylamino)-3-(1-(trifluoromethyl)cyclopropyl)-propyl)amino)benzenesulfonamide] |  |
| 6.00 | CN[C@H](CNc1cc(F)c(S(=O)(=O)Nc2ncc(F)s2)cc1Cl)CC1CC1(F)F (stereo partly drawn) [Ex2-22, 5-chloro-4-(((2S)-3-(2,2-difluorocyclopropyl)-2-(methylamino)propyl)amino)-2-fluoro-N-(5-fluorothiazol-2-yl)-benzenesulfonamide] | > 23 |
| 7.19 | [2H]C([2H])([2H])N[C@H](CNc1cc(F)c(S(=O)(=O)Nc2ncc(F)s2)cc1Cl)CC(C)(C)C [Ex3-14, (S)-5-chloro-4-((4,4-dimethyl-2-((methyl-d3)amino)pentyl)amino)-2-fluoro-N-(5-fluorothiazol-2-yl)-benzenesulfonamide] | > 429 |
| 6.92 | CN[C@H](CNc1cc(F)c(S(=O)(=O)Nc2nccs2)cc1Cl)CC1(C(F)(F)F)CC1 [Ex2-16, (S)-5-chloro-2-fluoro-4-((2-(methylamino)-3-(1-(trifluoromethyl)cyclopropyl)-propyl)amino)-N-(thiazol-2-yl)-benzenesulfonamide] | > 275 |
| 6.10 | CN[C@@H](CCC1CC1)CNc1cc(F)c(S(=O)(=O)Nc2ncc(F)s2)cc1Cl [Ex2-19, (S)-5-chloro-4-((4-cyclopropyl-2-(methylamino)butyl)amino)-2-fluoro-N-(5-fluorothiazol-2-yl)-benzenesulfonamide] | > 41 |
| 6.17 | CN[C@@H](CCC(C)(C)C)CNc1cc(F)c(S(=O)(=O)Nc2ncc(F)s2)cc1Cl [Ex2-15, (S)-5-chloro-4-((5,5-dimethyl-2-(methylamino)hexyl)amino)-2-fluoro-N-(5-fluorothiazol-2-yl)-benzenesulfonamide] | > 49 |
| 7.92 | CN[C@@H](CCC1(C)CC1)CNc1cc(F)c(S(=O)(=O)Nc2ncc(F)s2)cc1Cl [Ex2-23, (S)-5-chloro-2-fluoro-N-(5-fluorothiazol-2-yl)-4-((2-(methylamino)-4-(1-methylcyclopropyl)butyl)amino)benzenesulfonamide] | > 2750 |
| 6.77 | CN[C@H](CNc1cc(F)c(S(=O)(=O)Nc2nccs2)cc1Cl)Cc1ccc(F)cc1Br [Ex1-32, (S)-4-((3-(2-bromo-4-fluorophenyl)-2-(methyl-amino)propyl)-amino)-5-chloro-2-fluoro-N-(thiazol-2-yl)-benzenesulfonamide] |  |
| 6.19 | CN[C@H](CNc1cc(F)c(S(=O)(=O)Nc2ncc(F)s2)cc1C#N)CC(C)(C)C [Ex4-3, (S)-5-cyano-4-((4,4-dimethyl-2-(methylamino)pentyl)amino)-2-fluoro-N-(5-fluorothiazol-2-yl)benzenesulfonamide] | > 52 |
| 6.82 | CN(C)[C@H](CNc1cc(F)c(S(=O)(=O)Nc2ncc(F)s2)cc1Cl)CC1(C)CC1 [Ex7-3, (S)-5-chloro-4-((2-(dimethylamino)-3-(1-methylcyclopropyl)propyl)amino)-2-fluoro-N-(5-fluorothiazol-2-yl)benzenesulfonamide] |  |
| 6.96 | CN[C@H](CNc1cc(F)c(S(=O)(=O)Nc2ncc(F)s2)cc1Cl)CC1CCCC1 (single isomer, unassigned) [Ex3-11] |  |
| 6.96 | CN[C@H](CNc1cc(F)c(S(=O)(=O)Nc2ncc(F)s2)cc1Cl)CC1CC1(Cl)Cl (stereo partly drawn) [Ex2-21, 5-chloro-4-(((2S)-3-(2,2-dichlorocyclopropyl)-2-(methylamino)propyl)amino)-2-fluoro-N-(5-fluorothiazol-2-yl)-benzenesulfonamide] |  |

The remaining lines, values behind:

| SMILES | pIC50 [1] | ratio of Nav1.7 potency:Nav 1.5 potency [2] |
| --- | --- | --- |
| CN[C@H](CNc1cc(F)c(S(=O)(=O)Nc2nccs2)cc1Cl)Cc1ccc(Br)cc1 [Ex1-25, (S)-4-((3-(4-bromo-phenyl)-2-(methylamino)-propyl)amino)-5-chloro-2-fluoro-N-(thiazol-2-yl)-benzenesulfonamide] | 6.96 |  |
| CN[C@H](CNc1cc(F)c(S(=O)(=O)Nc2nccs2)cc1Cl)Cc1cc(F)cc(F)c1 [Ex1-30, (S)-5-chloro-4-((3-(3,5-difluorophenyl)-2-(methyl-amino)-propyl)amino)-2-fluoro-N-(thiazol-2-yl)-benzenesulfonamide] | 6.80 | > 206 |
| CN[C@H](CNc1cc(F)c(S(=O)(=O)Nc2nccs2)cc1Cl)CC1CCCCC1 [Ex1-18, (S)-5-chloro-4-((3-cyclohexyl-2-(methylamino)propyl)amino)-2-fluoro-N-(thiazol-2-yl)benzenesulfonamide] | 7.82 | > 2200 |
| CN[C@H](CNc1cc(F)c(S(=O)(=O)Nc2nccs2)cc1Cl)Cc1cccc(F)c1 [Ex1-28, (S)-5-chloro-2-fluoro-4-((3-(3-fluorophenyl)-2-(methylamino)-propyl)-amino)-N-(thiazol-2-yl)-benzenesulfonamide] | 7.49 | > 1031 |
| CN[C@H](CNc1cc(F)c(S(=O)(=O)Nc2nccs2)cc1Cl)Cc1ccc(F)cc1 (single isomer, unassigned) [Ex1-12] | 7.21 | > 541 |
| CN[C@H](CNc1cc(F)c(S(=O)(=O)Nc2nccs2)cc1Cl)Cc1ccccc1Br [Ex1-24, (S)-4-((3-(2-bromo-phenyl)-2-(methylamino)-propyl)amino)-5-chloro-2-fluoro-N-(thiazol-2-yl)-benzenesulfonamide] | 6.36 | > 75 |
| CN[C@H](CNc1cc(F)c(S(=O)(=O)Nc2nccs2)cc1Cl)Cc1cccc(Br)c1 [Ex1-23, (S)-4-((3-(3-bromo-phenyl)-2-(methylamino)-propyl)amino)-5-chloro-2-fluoro-N-(thiazol-2-yl)-benzenesulfonamide] | 7.44 | > 917 |
| CN[C@@H](CCc1ccccc1)CNc1cc(F)c(S(=O)(=O)Nc2nccs2)cc1Cl [Ex1-21, (S)-5-chloro-2-fluoro-4-((2-(methylamino)-4-phenylbutyl)amino)-N-(thiazol-2-yl)-benzenesulfonamide] | 6.70 |  |
| CN[C@H](CNc1cc(F)c(S(=O)(=O)Nc2ncns2)cc1Cl)Cc1ccccc1 [Ex1-26, (S)-5-chloro-2-fluoro-4-((2-(methylamino)-3-phenylpropyl)amino)-N-(1,2,4-thiadiazol-5-yl)-benzenesulfonamide] | 6.70 |  |
| CN[C@H](CNc1cc(F)c(S(=O)(=O)Nc2nccs2)cc1Cl)Cc1ccccc1 [Ex1-7, (S)-5-chloro-2-fluoro-4-((2-(methylamino)-3-phenylpropyl)amino)-N-(thiazol-2-yl)benzenesulfonamide] | 6.70 |  |
